Reference: PubChem BioAssay (NCI)
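Exposure lasted 48 hours, with cells grown in 96-well plates and compounds tested at five concentrations. Here, GI50 denotes the concentration required for 50% inhibition of growth. Definition used: TGI = concentration required for complete inhibition of growth.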

Experiments:
Experiment in all cases: inhibition of tumour cell growth, NCI panel, 48 h
[1] = system: NCI-H522 lung
[2] = system: OVCAR-5 ovarian
[3] = system: NCI-H23 lung
[4] = system: TK-10 renal
[5] = system: RPMI-8226 leukemia
[6] = system: OVCAR-4 ovarian
[7] = system: SK-MEL-2 melanoma
[8] = system: NCI/ADR-RES ovarian
[9] = system: SK-MEL-28 melanoma
[10] = system: MDA-MB-468 breast
[11] = system: SF-295 CNS
[12] = system: HOP-92 NSCLC
[13] = system: HL-60(TB) leukemia
[14] = system: SW-620 colon
[15] = system: SN12C renal
[16] = system: RXF 393 renal
[17] = system: NCI-H460 lung
[18] = system: CCRF-CEM leukemia
[19] = system: 786-0 renal
[20] = system: M14 melanoma
[21] = system: KM12 colon
[22] = system: A498 renal
[23] = system: PC-3 prostate
[24] = system: MCF7 breast
[25] = system: MDA-MB-231 breast
[26] = system: K-562 leukemia
[27] = system: HOP-62 NSCLC
[28] = system: HCT-116 colon
[29] = system: HCT-15 colon
[30] = system: HS 578T breast
[31] = system: SNB-75 CNS
[32] = system: A549 NSCLC
[33] = system: EKVX NSCLC
[34] = system: SF-268 CNS
[35] = system: SF-539 CNS
[36] = system: T-47D breast
[37] = system: UACC-257 melanoma
[38] = system: U251 CNS
[39] = system: SNB-19 CNS
[40] = system: LOX IMVI melanoma
[41] = system: CAKI-1 renal
[42] = system: HCC-2998 colon
[43] = system: SK-MEL-5 melanoma
[44] = system: ACHN renal
[45] = system: UO-31 renal
[46] = system: SK-OV-3 ovarian
[47] = system: NCI-H226 lung
[48] = system: MALME-3M melanoma
[49] = system: SR leukemia
[50] = system: HT29 colon
[51] = system: IGROV1 ovarian
[52] = system: DU-145 prostate
[53] = system: OVCAR-8 ovarian
[54] = system: COLO 205 colon
[55] = system: BT-549 breast
[56] = system: MDA-MB-435
[57] = system: MOLT-4 leukemia
[58] = system: OVCAR-3 ovarian
[59] = system: UACC-62 melanoma

C=C1CCC2C3(C)COC(c4cc(F)cc(F)c4)OC3CCC2(C)C1C/C=C1/C(=O)OCC1O (centres undefined)
GI50 [1]: 1.64 µM
TGI [1]: 3.23 µM
GI50 [2]: 1.59 µM
TGI [2]: 3.21 µM
GI50 [3]: 1.88 µM
TGI [3]: 3.75 µM
GI50 [4]: 1.68 µM
TGI [4]: 3.25 µM
GI50 [5]: 2.05 µM
TGI [5]: 5.45 µM
GI50 [6]: 1.85 µM
TGI [6]: 4.09 µM
GI50 [7]: 1.79 µM
TGI [7]: 3.38 µM
GI50 [8]: 1.82 µM
TGI [8]: 3.67 µM
GI50 [9]: 1.77 µM
TGI [9]: 3.21 µM
GI50 [10]: 1.73 µM
TGI [10]: 3.16 µM
GI50 [11]: 1.56 µM
TGI [11]: 2.98 µM
GI50 [12]: 1.77 µM
TGI [12]: 3.82 µM
GI50 [13]: 1.35 µM
TGI [13]: 3.59 µM
GI50 [14]: 1.35 µM
TGI [14]: 2.81 µM
GI50 [15]: 1.52 µM
TGI [15]: 2.89 µM
GI50 [16]: 1.73 µM
TGI [16]: 3.23 µM
GI50 [17]: 1.62 µM
TGI [17]: 3.2 µM
GI50 [18]: 0.649 µM
TGI [18]: 4.19 µM
GI50 [19]: 1.73 µM
TGI [19]: 3.13 µM
GI50 [20]: 1.74 µM
TGI [20]: 3.39 µM
GI50 [21]: 1.9 µM
TGI [21]: 3.86 µM
GI50 [22]: 3.41 µM
TGI [22]: 15.6 µM
GI50 [23]: 1.75 µM
TGI [23]: 3.6 µM
GI50 [24]: 1.18 µM
TGI [24]: 2.6 µM
GI50 [25]: 1.67 µM
TGI [25]: 3.25 µM
GI50 [26]: 1.98 µM
TGI [26]: 6.17 µM
GI50 [27]: 1.78 µM
TGI [27]: 3.44 µM
GI50 [28]: 1.43 µM
TGI [28]: 2.93 µM
GI50 [29]: 1.44 µM
TGI [29]: 2.98 µM
GI50 [30]: 2.11 µM
TGI [30]: 5.61 µM
GI50 [31]: 1.14 µM
TGI [31]: 2.4 µM
GI50 [32]: 2.55 µM
TGI [32]: 8.39 µM
GI50 [33]: 2.5 µM
TGI [33]: 6.5 µM
GI50 [34]: 1.84 µM
TGI [34]: 3.69 µM
GI50 [35]: 1.66 µM
TGI [35]: 3.02 µM
GI50 [36]: 1.43 µM
TGI [36]: 3.1 µM
GI50 [37]: 1.73 µM
TGI [37]: 3.44 µM
GI50 [38]: 1.58 µM
TGI [38]: 3.03 µM
GI50 [39]: 1.73 µM
TGI [39]: 3.43 µM
GI50 [40]: 1.48 µM
TGI [40]: 2.79 µM
GI50 [41]: 1.62 µM
TGI [41]: 3.01 µM
GI50 [42]: 1.66 µM
TGI [42]: 3.16 µM
GI50 [43]: 1.75 µM
TGI [43]: 3.21 µM
GI50 [44]: 1.7 µM
TGI [44]: 3.07 µM
GI50 [45]: 1.41 µM
TGI [45]: 2.7 µM
GI50 [46]: 9.79 µM
TGI [46]: 22 µM
GI50 [47]: 1.73 µM
TGI [47]: 3.42 µM
GI50 [48]: 1.69 µM
TGI [48]: 3.15 µM
GI50 [49]: 2.08 µM
TGI [49]: 5.23 µM
GI50 [50]: 1.79 µM
TGI [50]: 3.61 µM
GI50 [51]: 1.81 µM
TGI [51]: 3.53 µM
GI50 [52]: 2.21 µM
TGI [52]: 5.11 µM
GI50 [53]: 1.77 µM
TGI [53]: 4.52 µM
GI50 [54]: 1.86 µM
TGI [54]: 3.32 µM
GI50 [55]: 1.41 µM
TGI [55]: 2.73 µM
GI50 [56]: 1.55 µM
TGI [56]: 3.1 µM
GI50 [57]: 2.58 µM
TGI [57]: 7.52 µM
GI50 [58]: 1.62 µM
TGI [58]: 3.12 µM
GI50 [59]: 1.65 µM
TGI [59]: 3.29 µM

O=C(NN1C(=O)/C(=C/C=C/c2ccc([N+](=O)[O-])o2)SC1=S)c1ccc(Cl)cc1
GI50 [1]: 0.18 µM
TGI [1]: 0.353 µM
GI50 [2]: 0.734 µM
TGI [2]: 2 µM
GI50 [3]: 0.202 µM
TGI [3]: 0.442 µM
GI50 [4]: 1.47 µM
TGI [4]: 2.92 µM
GI50 [5]: 0.318 µM
TGI [5]: 2.18 µM
GI50 [6]: 1.26 µM
TGI [6]: 2.79 µM
GI50 [7]: 0.219 µM
TGI [7]: 0.503 µM
GI50 [8]: 0.493 µM
TGI [8]: 2 µM
GI50 [9]: 0.356 µM
TGI [9]: 1.1 µM
GI50 [10]: 1.48 µM
TGI [10]: 3.09 µM
GI50 [11]: 1.74 µM
TGI [11]: 3.28 µM
GI50 [12]: 0.299 µM
TGI [12]: 0.734 µM
GI50 [13]: 2.06 µM
TGI [13]: 11.3 µM
GI50 [14]: 0.143 µM
TGI [14]: 0.31 µM
GI50 [15]: 0.172 µM
TGI [15]: 0.375 µM
GI50 [16]: 0.239 µM
TGI [16]: 0.837 µM
GI50 [17]: 0.252 µM
TGI [17]: 0.648 µM
GI50 [18]: 0.316 µM
TGI [18]: 9.26 µM
GI50 [19]: 0.241 µM
TGI [19]: 0.55 µM
GI50 [20]: 0.189 µM
TGI [20]: 0.369 µM
GI50 [21]: 0.473 µM
TGI [21]: 1.91 µM
GI50 [22]: 4.2 µM
TGI [22]: 9.7 µM
GI50 [23]: 0.863 µM
TGI [23]: 3.9 µM
GI50 [24]: 0.293 µM
TGI [24]: 1.44 µM
GI50 [25]: 0.18 µM
TGI [25]: 0.341 µM
GI50 [26]: 0.121 µM
TGI [26]: 8.28 µM
GI50 [27]: 0.78 µM
TGI [27]: 2.12 µM
GI50 [28]: 0.0848 µM
TGI [28]: 0.253 µM
GI50 [29]: 0.0647 µM
TGI [29]: 0.208 µM
GI50 [30]: 1.35 µM
TGI [30]: 4.55 µM
GI50 [31]: 1.2 µM
TGI [31]: 2.82 µM
GI50 [33]: 0.285 µM
TGI [33]: 0.889 µM
GI50 [34]: 1.53 µM
TGI [34]: 4.11 µM
GI50 [35]: 0.202 µM
TGI [35]: 0.401 µM
GI50 [36]: 1.64 µM
TGI [36]: 3.1 µM
GI50 [37]: 1.48 µM
TGI [37]: 3.22 µM
GI50 [38]: 0.306 µM
TGI [38]: 1.12 µM
GI50 [39]: 1.27 µM
TGI [39]: 2.54 µM
GI50 [40]: 0.219 µM
TGI [40]: 0.496 µM
GI50 [41]: 0.346 µM
TGI [41]: 1.14 µM
GI50 [42]: 0.268 µM
TGI [42]: 0.706 µM
GI50 [43]: 0.214 µM
TGI [43]: 0.5 µM
GI50 [44]: 0.288 µM
TGI [44]: 0.78 µM
GI50 [45]: 0.671 µM
TGI [45]: 1.97 µM
GI50 [46]: 1.71 µM
TGI [46]: 3.18 µM
GI50 [47]: 0.247 µM
TGI [47]: 0.601 µM
GI50 [48]: 0.186 µM
TGI [48]: 0.347 µM
GI50 [49]: 0.0454 µM
TGI [49]: > 100 µM
GI50 [50]: 0.221 µM
TGI [50]: 0.475 µM
GI50 [51]: 0.596 µM
TGI [51]: 1.39 µM
GI50 [52]: 0.614 µM
TGI [52]: 1.55 µM
GI50 [53]: 0.245 µM
TGI [53]: 0.774 µM
GI50 [54]: 0.212 µM
TGI [54]: 0.428 µM
GI50 [55]: 0.225 µM
TGI [55]: 0.519 µM
GI50 [56]: 0.203 µM
TGI [56]: 0.446 µM
GI50 [57]: 0.397 µM
TGI [57]: 13.6 µM
GI50 [58]: 0.268 µM
TGI [58]: 0.747 µM
GI50 [59]: 0.223 µM
TGI [59]: 0.564 µM
